Experimental data taken from BindingDB's records for patent US20260055102 (Redx Pharma, 2026).
pIC50: −log10 of the molar value.

Columns and labels:
[1] = molecular target: T1, Discoidin domain-containing receptor 2 (Homo sapiens, UniProt Q16832); assay: DDR1 and DDR2 Biochemical Assay
T1 sequence (Q16832 whole entry): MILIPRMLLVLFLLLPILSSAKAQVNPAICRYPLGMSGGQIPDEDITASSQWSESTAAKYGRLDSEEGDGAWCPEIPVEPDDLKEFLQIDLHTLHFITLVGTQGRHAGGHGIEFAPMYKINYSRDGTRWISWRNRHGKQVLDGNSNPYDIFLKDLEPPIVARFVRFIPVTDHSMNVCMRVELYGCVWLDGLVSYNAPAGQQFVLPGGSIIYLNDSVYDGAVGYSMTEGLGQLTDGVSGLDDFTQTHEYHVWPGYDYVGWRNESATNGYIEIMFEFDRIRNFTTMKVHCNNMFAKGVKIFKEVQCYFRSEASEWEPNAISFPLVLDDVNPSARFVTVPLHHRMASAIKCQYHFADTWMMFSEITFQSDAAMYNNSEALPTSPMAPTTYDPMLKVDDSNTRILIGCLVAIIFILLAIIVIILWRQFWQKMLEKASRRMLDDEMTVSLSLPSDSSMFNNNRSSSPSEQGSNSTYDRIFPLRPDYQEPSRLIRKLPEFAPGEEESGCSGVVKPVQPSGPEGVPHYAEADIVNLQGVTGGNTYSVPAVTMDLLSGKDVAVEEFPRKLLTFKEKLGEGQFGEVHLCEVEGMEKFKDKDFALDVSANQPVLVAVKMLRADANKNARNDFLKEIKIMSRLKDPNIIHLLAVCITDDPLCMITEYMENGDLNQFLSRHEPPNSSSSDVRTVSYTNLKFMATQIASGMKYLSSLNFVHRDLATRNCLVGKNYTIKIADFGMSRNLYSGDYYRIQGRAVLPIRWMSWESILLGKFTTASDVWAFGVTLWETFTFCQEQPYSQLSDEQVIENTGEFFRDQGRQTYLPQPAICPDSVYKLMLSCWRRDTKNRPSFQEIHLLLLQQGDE
Protocol: (§1) The capacity of compounds to bind to DDR1 and DDR2 was quantified using a LanthaScreen Eu Kinase Binding Assay. Recombinant human DDR1 (2.5 nM; aa440-876 containing a GST tag) and DDR2 (1.75 nM; aa427-855 containing a GST tag) were diluted in assay buffer (50 mM HEPES pH7.3, 10 mM MgCl2, 1 mM EGTA and 0.01% Tween) with various concentrations of compound in a 384-well plate and a volume of 5 uL. After a 30-minute incubation at room temperature, 2.5 uL of Eu-anti GST antibody (diluted to 1 nM in assay buffer) plus Kinase Tracer 178 (diluted in assay buffer to 5 nM for DDR1 and 10 nM for DDR2) were added to the plate. Following 60-minute incubation at room temperature, time-resolved fluorescence was measured on a BMG Labtech PHERAstar plate reader. DMSO (1%) and reference compound (1 μM) were used to generate the Max and Min assay signals, respectively. Data was analysed using a four-parameter logistic model to calculate IC50 values, with at least two independent replicates were performed for each compound.

[2] = molecular target: Epithelial discoidin domain-containing receptor 1 (Homo sapiens, UniProt Q08345); assay: DDR1 and DDR2 Biochemical Assay
Sequence of Epithelial discoidin domain-containing receptor 1 (Q08345 whole entry, the tested form may be a part): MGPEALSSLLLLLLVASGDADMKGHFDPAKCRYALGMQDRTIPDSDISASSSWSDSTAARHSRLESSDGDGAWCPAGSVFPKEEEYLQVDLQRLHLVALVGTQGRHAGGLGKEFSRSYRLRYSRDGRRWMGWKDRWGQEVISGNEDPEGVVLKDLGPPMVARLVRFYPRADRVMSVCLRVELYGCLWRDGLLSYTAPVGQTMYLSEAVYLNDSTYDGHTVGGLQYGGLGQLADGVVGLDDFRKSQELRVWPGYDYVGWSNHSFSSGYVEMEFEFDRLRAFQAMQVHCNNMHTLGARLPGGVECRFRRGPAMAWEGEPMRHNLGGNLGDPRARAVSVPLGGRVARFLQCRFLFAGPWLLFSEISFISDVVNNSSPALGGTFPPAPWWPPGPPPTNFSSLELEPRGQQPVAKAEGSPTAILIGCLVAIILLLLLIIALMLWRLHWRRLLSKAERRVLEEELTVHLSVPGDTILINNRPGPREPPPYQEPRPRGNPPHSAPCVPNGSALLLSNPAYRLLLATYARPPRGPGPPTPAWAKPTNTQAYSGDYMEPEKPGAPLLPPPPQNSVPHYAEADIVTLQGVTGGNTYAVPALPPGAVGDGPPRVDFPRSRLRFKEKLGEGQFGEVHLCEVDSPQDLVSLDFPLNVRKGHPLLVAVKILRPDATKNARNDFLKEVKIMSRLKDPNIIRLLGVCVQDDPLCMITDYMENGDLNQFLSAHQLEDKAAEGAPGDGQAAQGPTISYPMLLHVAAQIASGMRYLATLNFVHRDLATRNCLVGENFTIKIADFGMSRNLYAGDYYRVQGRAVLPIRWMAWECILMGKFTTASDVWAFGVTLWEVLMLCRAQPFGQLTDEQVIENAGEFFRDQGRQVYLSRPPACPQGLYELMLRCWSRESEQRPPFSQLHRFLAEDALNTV
Protocol: as §1

SMILES | pIC50 [1] | pIC50 [2]
Cc1cccc2c1n(-c1ccc(-c3cncc4c3cnn4C)cc1)c(=O)n2CC(=O)N1CCC[C@H]1CF [US20260055102, Example 26] | < 6.00 | 
Cc1cccc2c1n(-c1ccc(-c3cncc4c3cnn4C)cn1)c(=O)n2CC(=O)N1CCO[C@H](C(F)(F)F)C1 [US20260055102, Example 61] |  | > 8.00
CN(C)c1cccc2c1n(-c1ccc(-c3cncc4c3cnn4C)cc1)c(=O)n2CC(=O)NCC(F)(F)F [US20260055102, Example 80] | < 6.00 | 
Cc1nc(-n2c(=O)n(CC(=O)NCC(F)(F)F)c3cccc(C)c32)cnc1-c1cncc2c1cnn2C [US20260055102, Example 100] | < 6.00 | < 6.00
